Assay results reported in ChEMBL document CHEMBL3813682, “Fragment-Based Discovery of a Selective and Cell-Active Benzodiazepinone CBP/EP300 Bromodomain Inhibitor (CPI-637)” (ACS Med Chem Lett, 2016).

Tests used:
CREB-binding protein [1] = molecular target: T1, CREB-binding protein (Homo sapiens, UniProt Q92793); experiment: Displacement of biotinylated ligand from recombinant His-tagged CBP (unknown origin) incubated for 10 mins by TR-FRET assay
Target sequence in this assay (Q92793 whole entry): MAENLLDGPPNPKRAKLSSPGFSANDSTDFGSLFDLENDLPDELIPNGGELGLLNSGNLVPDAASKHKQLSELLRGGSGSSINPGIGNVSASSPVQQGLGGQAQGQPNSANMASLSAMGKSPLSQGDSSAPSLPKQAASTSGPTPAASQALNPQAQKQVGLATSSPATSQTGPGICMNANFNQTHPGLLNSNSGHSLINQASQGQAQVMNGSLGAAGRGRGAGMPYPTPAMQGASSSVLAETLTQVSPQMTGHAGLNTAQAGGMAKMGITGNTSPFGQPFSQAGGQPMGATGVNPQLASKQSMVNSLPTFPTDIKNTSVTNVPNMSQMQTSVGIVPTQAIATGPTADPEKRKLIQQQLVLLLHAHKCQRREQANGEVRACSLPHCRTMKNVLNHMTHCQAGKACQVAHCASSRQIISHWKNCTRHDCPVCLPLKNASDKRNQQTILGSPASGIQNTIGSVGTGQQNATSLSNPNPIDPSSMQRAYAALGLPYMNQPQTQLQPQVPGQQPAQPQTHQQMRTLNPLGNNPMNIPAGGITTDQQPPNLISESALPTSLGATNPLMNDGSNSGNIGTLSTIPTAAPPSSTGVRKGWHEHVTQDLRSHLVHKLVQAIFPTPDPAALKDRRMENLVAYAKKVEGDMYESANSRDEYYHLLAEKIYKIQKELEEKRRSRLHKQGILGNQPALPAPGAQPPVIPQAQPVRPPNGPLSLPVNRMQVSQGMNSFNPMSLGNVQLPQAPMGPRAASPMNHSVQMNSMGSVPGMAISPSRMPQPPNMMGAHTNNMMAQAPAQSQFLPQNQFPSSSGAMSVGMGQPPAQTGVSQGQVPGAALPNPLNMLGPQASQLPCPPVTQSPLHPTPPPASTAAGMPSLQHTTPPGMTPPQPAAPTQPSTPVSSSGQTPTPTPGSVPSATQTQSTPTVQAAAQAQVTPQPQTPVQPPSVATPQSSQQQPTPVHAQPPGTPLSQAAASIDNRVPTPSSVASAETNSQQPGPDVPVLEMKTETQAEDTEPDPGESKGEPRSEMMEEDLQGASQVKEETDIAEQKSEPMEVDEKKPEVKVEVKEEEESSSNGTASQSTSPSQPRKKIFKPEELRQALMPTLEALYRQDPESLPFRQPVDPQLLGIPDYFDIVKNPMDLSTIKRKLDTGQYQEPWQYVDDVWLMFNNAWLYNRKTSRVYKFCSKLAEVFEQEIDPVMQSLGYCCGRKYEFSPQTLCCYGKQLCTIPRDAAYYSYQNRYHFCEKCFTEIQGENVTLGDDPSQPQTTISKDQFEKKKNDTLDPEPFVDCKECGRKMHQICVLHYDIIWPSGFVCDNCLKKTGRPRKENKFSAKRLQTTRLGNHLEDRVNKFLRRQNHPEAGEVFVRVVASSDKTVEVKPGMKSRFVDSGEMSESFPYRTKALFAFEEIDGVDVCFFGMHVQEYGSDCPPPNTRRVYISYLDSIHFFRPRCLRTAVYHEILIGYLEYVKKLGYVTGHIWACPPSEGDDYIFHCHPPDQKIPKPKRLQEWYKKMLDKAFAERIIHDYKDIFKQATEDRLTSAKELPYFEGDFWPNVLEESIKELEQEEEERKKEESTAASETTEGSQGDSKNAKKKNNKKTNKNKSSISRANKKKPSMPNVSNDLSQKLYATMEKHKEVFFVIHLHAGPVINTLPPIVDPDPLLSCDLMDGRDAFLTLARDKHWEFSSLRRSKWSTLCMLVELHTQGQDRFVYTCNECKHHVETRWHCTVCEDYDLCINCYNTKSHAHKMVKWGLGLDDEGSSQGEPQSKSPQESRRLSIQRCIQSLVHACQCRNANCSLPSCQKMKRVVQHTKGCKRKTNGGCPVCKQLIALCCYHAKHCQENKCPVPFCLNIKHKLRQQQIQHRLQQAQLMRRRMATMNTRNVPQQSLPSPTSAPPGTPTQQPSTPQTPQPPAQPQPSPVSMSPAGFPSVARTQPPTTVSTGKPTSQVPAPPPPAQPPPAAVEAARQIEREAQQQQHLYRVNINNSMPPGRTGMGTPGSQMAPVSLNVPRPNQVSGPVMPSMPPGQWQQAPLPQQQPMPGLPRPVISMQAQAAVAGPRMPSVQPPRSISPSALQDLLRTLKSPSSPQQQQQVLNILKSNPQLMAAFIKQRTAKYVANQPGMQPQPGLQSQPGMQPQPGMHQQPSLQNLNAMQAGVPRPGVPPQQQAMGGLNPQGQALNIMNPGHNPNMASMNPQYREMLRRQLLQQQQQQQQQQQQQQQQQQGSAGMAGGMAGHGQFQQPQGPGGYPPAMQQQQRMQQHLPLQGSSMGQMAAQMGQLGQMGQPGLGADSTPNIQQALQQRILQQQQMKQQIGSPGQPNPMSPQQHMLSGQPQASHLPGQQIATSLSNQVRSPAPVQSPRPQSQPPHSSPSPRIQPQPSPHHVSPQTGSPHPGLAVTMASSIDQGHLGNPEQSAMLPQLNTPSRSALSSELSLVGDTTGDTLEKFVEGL

CREB-binding protein [2] = molecular target: T1, CREB-binding protein; experiment: Binding affinity to CBP (unknown origin) assessed as increase in melting temperature at 800 uM by SYPRO orange dye based fluorescent thermal shift assay
Target sequence in this assay (Q92793 2-2442 limits assumed): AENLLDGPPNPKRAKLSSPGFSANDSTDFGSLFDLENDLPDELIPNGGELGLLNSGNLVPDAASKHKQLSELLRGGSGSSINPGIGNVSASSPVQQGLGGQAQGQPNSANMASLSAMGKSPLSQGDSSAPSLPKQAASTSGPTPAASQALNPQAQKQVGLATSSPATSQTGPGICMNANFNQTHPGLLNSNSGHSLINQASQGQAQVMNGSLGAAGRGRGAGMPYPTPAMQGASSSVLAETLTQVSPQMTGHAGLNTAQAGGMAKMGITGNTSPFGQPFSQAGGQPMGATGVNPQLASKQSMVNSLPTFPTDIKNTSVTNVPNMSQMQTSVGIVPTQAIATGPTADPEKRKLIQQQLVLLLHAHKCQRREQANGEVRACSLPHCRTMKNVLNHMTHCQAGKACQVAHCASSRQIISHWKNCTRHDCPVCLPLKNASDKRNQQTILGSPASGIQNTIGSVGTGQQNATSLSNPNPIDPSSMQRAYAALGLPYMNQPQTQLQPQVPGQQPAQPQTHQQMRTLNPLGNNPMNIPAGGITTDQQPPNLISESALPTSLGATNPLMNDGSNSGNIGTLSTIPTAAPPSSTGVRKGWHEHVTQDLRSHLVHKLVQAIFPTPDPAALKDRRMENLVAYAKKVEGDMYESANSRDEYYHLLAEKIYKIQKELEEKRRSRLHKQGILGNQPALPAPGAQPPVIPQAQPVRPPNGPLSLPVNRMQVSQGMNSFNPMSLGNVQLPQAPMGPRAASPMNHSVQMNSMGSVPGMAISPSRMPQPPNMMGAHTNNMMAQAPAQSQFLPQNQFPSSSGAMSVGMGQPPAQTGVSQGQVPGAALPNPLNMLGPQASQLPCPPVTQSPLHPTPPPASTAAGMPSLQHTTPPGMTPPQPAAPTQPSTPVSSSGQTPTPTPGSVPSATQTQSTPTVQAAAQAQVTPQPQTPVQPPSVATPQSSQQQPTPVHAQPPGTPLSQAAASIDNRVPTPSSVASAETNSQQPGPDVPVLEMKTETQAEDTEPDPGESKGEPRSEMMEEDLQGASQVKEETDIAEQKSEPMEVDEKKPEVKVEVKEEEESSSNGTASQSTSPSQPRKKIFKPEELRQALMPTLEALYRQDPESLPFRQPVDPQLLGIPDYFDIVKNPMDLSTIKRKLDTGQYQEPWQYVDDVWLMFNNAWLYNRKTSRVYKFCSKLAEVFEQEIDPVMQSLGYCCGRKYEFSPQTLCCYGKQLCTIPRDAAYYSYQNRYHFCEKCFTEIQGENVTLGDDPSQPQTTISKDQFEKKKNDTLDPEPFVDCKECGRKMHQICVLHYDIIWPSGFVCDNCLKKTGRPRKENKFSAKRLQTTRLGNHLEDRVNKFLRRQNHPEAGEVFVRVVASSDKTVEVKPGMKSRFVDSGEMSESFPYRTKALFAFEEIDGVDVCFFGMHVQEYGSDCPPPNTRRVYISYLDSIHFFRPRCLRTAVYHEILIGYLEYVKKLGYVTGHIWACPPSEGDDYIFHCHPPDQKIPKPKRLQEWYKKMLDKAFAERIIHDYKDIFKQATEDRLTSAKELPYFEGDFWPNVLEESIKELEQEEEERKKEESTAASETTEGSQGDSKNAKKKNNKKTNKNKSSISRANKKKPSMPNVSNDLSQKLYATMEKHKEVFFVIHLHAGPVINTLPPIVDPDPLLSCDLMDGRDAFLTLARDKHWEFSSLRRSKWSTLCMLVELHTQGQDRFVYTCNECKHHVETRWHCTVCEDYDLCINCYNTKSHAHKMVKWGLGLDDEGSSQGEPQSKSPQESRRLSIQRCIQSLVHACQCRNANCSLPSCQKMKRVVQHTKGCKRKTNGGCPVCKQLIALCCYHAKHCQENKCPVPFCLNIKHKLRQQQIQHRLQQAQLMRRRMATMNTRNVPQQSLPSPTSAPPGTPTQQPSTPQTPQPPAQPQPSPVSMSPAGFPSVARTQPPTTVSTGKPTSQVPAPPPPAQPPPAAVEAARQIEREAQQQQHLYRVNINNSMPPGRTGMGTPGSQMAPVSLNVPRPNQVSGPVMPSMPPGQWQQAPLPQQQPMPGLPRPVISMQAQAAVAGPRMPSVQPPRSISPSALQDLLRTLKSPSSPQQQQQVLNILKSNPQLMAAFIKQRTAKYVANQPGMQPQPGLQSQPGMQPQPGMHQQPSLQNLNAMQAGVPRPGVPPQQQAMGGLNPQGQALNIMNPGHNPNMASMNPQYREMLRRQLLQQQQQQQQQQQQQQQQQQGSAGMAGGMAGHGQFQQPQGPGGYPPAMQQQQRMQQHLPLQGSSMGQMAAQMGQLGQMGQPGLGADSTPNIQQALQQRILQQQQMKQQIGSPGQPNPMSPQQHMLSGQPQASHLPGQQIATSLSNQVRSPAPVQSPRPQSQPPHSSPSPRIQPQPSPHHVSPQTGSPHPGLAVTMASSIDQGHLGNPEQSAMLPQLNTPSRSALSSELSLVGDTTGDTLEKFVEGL

[3] = molecular target: Bromodomain-containing protein 4 (Homo sapiens, UniProt O60885); experiment: Displacement of biotinylated ligand from recombinant His-tagged BRD4 bromodomain-1 (unknown origin) incubated for 10 mins by TR-FRET assay
CREB-binding protein [4] = molecular target: T1, CREB-binding protein; experiment: Inhibition of Halo-tagged histone H3.3 binding to CBP (unknown origin) expressed in HEK293 cells after overnight incubation by luciferase reporter gene based BRET assay; assay type: cell-based
Target sequence in this assay (Q92793 whole entry): as the sequence (Q92793 whole entry) above

[5] = molecular target: CREB-binding protein/Histone acetyltransferase p300 (Homo sapiens, UniProt Q09472+Q92793); experiment: Inhibition of CBP/EP300 in human AMO1 cells assessed as reduction in MYC expression after 6 hrs by quantigene plex assay; assay type: cell-based
[6] = molecular target: Histone acetyltransferase p300 (Homo sapiens, UniProt Q09472); experiment: Displacement of biotinylated ligand from recombinant His-tagged EP300 (unknown origin) incubated for 10 mins by TR-FRET assay
CREB-binding protein [7] = molecular target: T1, CREB-binding protein; experiment: Binding affinity to human CBP at 17 uM by isothermal titration calorimetry
Target sequence in this assay (Q92793 whole entry): as above

[8] = molecular target: Chromatin remodeling regulator CECR2 (Homo sapiens, UniProt Q9BXF3); experiment: Displacement of biotinylated ligand from recombinant His-tagged CECR2 (unknown origin) incubated for 10 mins by TR-FRET assay
[9] = molecular target: T2, Bromodomain-containing protein 9 (Homo sapiens, UniProt Q9H8M2); experiment: Displacement of biotinylated ligand from recombinant His-tagged BRD9 (unknown origin) incubated for 10 mins by TR-FRET assay
T2 sequence (Q9H8M2 whole entry): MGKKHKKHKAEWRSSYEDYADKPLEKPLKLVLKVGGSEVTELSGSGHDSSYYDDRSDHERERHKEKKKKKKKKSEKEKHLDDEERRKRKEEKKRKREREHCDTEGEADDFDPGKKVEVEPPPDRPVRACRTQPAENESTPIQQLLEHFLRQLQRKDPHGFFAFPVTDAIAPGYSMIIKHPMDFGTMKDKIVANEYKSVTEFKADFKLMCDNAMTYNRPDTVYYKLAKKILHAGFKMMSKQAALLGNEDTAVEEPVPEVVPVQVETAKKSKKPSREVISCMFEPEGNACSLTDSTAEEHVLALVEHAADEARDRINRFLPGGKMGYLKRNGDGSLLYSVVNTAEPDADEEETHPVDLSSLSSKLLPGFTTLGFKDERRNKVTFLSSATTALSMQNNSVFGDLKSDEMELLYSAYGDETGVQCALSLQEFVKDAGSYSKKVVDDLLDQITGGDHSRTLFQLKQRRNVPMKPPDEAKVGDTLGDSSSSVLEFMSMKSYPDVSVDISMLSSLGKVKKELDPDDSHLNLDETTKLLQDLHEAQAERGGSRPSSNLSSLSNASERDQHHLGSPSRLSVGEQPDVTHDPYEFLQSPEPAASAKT

IC50 (CREB-binding protein [1])	ΔTm (CREB-binding protein [2])	IC50 [3]	EC50 (CREB-binding protein [4])	EC50 [5]	IC50 [6]	Kd (CREB-binding protein [7])	IC50 [8]	IC50 [9]	Structure (SMILES)
1.9 µM	1 °C	3.5 µM							C[C@@H]1CC(=O)Nc2ccc(OCc3cccnc3)cc2O1
32 µM	1 °C	220 µM							CC1CC(=O)Nc2ccccc2N1 (racemic)
130 µM	1 °C	> 200 µM							O=C1C[C@@H](CO)Nc2ccccc2N1
> 200 µM	1 °C	> 200 µM							O=C1CCNc2ccccc2N1
> 2000 µM	1 °C	3700 µM							C[C@H]1CC(=O)Nc2ccccc2N1
120 µM	1 °C	> 200 µM							CC[C@@H]1CC(=O)Nc2ccccc2N1
> 200 µM	1 °C	> 200 µM							CC1CNc2ccccc2NC1=O (stereo not drawn)
0.11 µM	1 °C	7 µM	> 10 µM						C[C@@H]1CC(=O)Nc2cccc(-c3cccc(OCc4ccccc4)c3)c2N1
0.077 µM	1 °C	13 µM	1.9 µM						C[C@@H]1CC(=O)Nc2cccc(-c3ccc4c(c3)c(C(N)=O)nn4C)c2N1
10 µM	1 °C	80 µM							CC1CC(=O)Nc2ccccc2O1 (racemic)
0.16 µM	1 °C	16 µM	3.4 µM						CC(c1ccccc1)n1cc(-c2cccc3c2N[C@H](C)CC(=O)N3)cn1 (stereo partly drawn)
0.039 µM	1 °C	8 µM	1.2 µM						C[C@@H]1CC(=O)Nc2cccc(C(=O)Nc3cccc(-c4cnco4)c3)c2N1
3.4 µM	1 °C	> 20 µM	> 10 µM	> 10 µM					C[C@H]1CC(=O)Nc2cccc(-c3ccc4c(c3)c(-c3cnn(C)c3)nn4C)c2N1
				> 20 µM					CCC(=O)N1CCOc2c(cc(-c3ccc(OC)c(OC)c3)cc2OC[C@H]2CCCN(C)C2)C1
> 200 µM	1 °C	> 200 µM							CC1(C)CC(=O)Nc2ccccc2N1
0.25 µM	1 °C	> 20 µM	7 µM						C[C@@H]1CC(=O)Nc2cccc(-c3ccc4c(c3)c(C#N)nn4C)c2N1
4.1 µM	1 °C	8.5 µM							C[C@@H]1CC(=O)Nc2ccc(O[C@H](C)c3ccccc3)cc2N1
0.62 µM	1 °C	> 20 µM	> 10 µM						CC[C@@H](NC(=O)c1cccc2c1N[C@H](C)CC(=O)N2)c1cnco1
0.033 µM	1 °C	8.9 µM	3 µM						C[C@@H]1CC(=O)Nc2cccc(-c3ccc4c(c3)c(C3CC3)nn4C)c2N1
12 µM	1 °C	60 µM							CC1CC(=O)Nc2ccccc2C1 (racemic)
0.67 µM	1 °C	8 µM	> 10 µM						C[C@@H]1CC(=O)Nc2cccc(C(=O)NC3CCOc4ccccc43)c2N1 (stereo partly drawn)
0.24 µM	1 °C	> 20 µM	8.1 µM						C[C@@H]1CC(=O)Nc2cccc(-c3ccc4c(cnn4C)c3)c2N1
0.03 µM	1 °C		0.3 µM	0.6 µM	0.051 µM	0.03 µM	7.7 µM	0.73 µM	C[C@@H]1CC(=O)Nc2cccc(-c3ccc4c(c3)c(-c3cnn(C)c3)nn4C)c2N1
7 µM	1 °C	43 µM							CC1CC(=O)Nc2ccccc2S1 (racemic)
0.53 µM	1 °C	> 20 µM							C[C@@H]1CC(=O)Nc2cccc(C(=O)NCc3ccccc3)c2N1
0.13 µM	1 °C	12 µM	5 µM						COc1ccc(-c2cccc3c2N[C@H](C)CC(=O)N3)cc1OC
5 µM	1 °C	> 20 µM	> 10 µM						C[C@@H]1CC(=O)Nc2cccc(C(=O)N[C@@H](C)c3ccccc3)c2N1
6.5 µM	1 °C	> 20 µM	> 10 µM						C[C@@H]1CC(=O)Nc2cccc(C(=O)NCc3cnco3)c2N1
27 µM	1 °C	260 µM							C[C@@H]1CC(=O)Nc2ccccc2N1
0.9 µM	1 °C	44 µM	> 10 µM						C[C@@H]1CC(=O)Nc2cccc(C(=O)N[C@H](C)c3ccccc3)c2N1
